{
  "source": "ChEMBL document CHEMBL1132516",
  "about": "“Further hypotensive metabolites from Verbesina caracasana” (1999)",
  "key": {"[1]": {"system": "Rattus norvegicus", "assay": "Percent change in systolic blood pressure (mmHg)in anesthetized rats by i.v. administration", "format": "functional, Artery"}, "[2]": {"system": "Rattus norvegicus", "assay": "Maximum rate of rise of the left ventricular isovolumetric pressure in anesthetized rats by i.v. administration", "format": "functional, Heart left ventricle"}, "[3]": {"system": "Rattus norvegicus", "assay": "Percent change in heart rate expressed in beats / min in anesthetized rats by i.v. administration", "format": "functional"}, "[4]": {"system": "Rattus norvegicus", "assay": "Percent change in diastolic blood pressure (mmHg)in anesthetized rats by i.v. administration", "format": "functional, Artery"}, "[5]": {"system": "Rattus norvegicus", "assay": "Maximum rate of rise of the left ventricular isovolumetric pressure (dP/dt, an index of cardiac inotropism in mmHg/sec)in anesthetized rats by i.v. administration", "format": "functional, Heart left ventricle"}, "[6]": {"system": "Rattus norvegicus", "assay": "Percent change in respiratory frequency (RF) expressed in beats / min in anesthetized rats by i.v. administration", "format": "functional"}, "[7]": {"system": "Rattus norvegicus", "assay": "Percent change in tidal volume expressed in microL in anesthetized rats by i.v. administration", "format": "functional"}},
  "data": [
    {"molecule": "N=C(N)NCCN1CCCCCCC1", "note": "[GUANETHIDINE]", "values": [
      {"measurement": "Change", "setting": "[1]", "value": -26, "unit": "%"},
      {"measurement": "Change", "setting": "[2]", "value": -17, "unit": "%"},
      {"measurement": "Change", "setting": "[3]", "value": -7, "unit": "%"},
      {"measurement": "Change", "setting": "[4]", "value": -24, "unit": "%"}
    ]},
    {"molecule": "COC(=O)[C@H]1[C@H]2C[C@@H]3c4[nH]c5cc(OC)ccc5c4CCN3C[C@H]2C[C@@H](OC(=O)c2cc(OC)c(OC)c(OC)c2)[C@@H]1OC", "note": "[RESERPINE]", "values": [
      {"measurement": "Change", "setting": "[1]", "value": -31, "unit": "%"},
      {"measurement": "Change", "setting": "[5]", "value": -22, "unit": "%"},
      {"measurement": "Change", "setting": "[3]", "value": -15, "unit": "%"},
      {"measurement": "Change", "setting": "[4]", "value": -32, "unit": "%"}
    ]},
    {"molecule": "COc1ccc(/C=C/C(=O)NCCCCN=C(N)N)cc1OC", "values": [
      {"measurement": "Change", "setting": "[6]", "value": 4, "unit": "%"},
      {"measurement": "Change", "setting": "[1]", "value": -8, "unit": "%"},
      {"measurement": "Change", "setting": "[2]", "value": 11, "unit": "%"},
      {"measurement": "Change", "setting": "[3]", "value": 0, "unit": "%"},
      {"measurement": "Change", "setting": "[7]", "value": 12, "unit": "%"},
      {"measurement": "Change", "setting": "[4]", "value": -8, "unit": "%"}
    ]},
    {"molecule": "CC(C)=CCNC(=N)NCCCCN", "values": [
      {"measurement": "Change", "setting": "[6]", "value": 4, "unit": "%"},
      {"measurement": "Change", "setting": "[1]", "value": -11, "unit": "%"},
      {"measurement": "Change", "setting": "[2]", "value": 23, "unit": "%"},
      {"measurement": "Change", "setting": "[3]", "value": -4, "unit": "%"},
      {"measurement": "Change", "setting": "[7]", "value": 11, "unit": "%"},
      {"measurement": "Change", "setting": "[4]", "value": -17, "unit": "%"}
    ]},
    {"molecule": "CC(C)=CCN=C(N)N", "note": "[GALEGINE]", "values": [
      {"measurement": "Change", "setting": "[6]", "value": 70, "unit": "%"},
      {"measurement": "Change", "setting": "[1]", "value": -27, "unit": "%"},
      {"measurement": "Change", "setting": "[2]", "value": 32, "unit": "%"},
      {"measurement": "Change", "setting": "[3]", "value": -27, "unit": "%"},
      {"measurement": "Change", "setting": "[7]", "value": 31, "unit": "%"},
      {"measurement": "Change", "setting": "[4]", "value": -33, "unit": "%"}
    ]},
    {"molecule": "Clc1cccc(Cl)c1NC1=NCCN1", "note": "[CLONIDINE]", "values": [
      {"measurement": "Change", "setting": "[1]", "value": -16, "unit": "%"},
      {"measurement": "Change", "setting": "[2]", "value": -21, "unit": "%"},
      {"measurement": "Change", "setting": "[3]", "value": -15, "unit": "%"},
      {"measurement": "Change", "setting": "[4]", "value": -17, "unit": "%"}
    ]},
    {"molecule": "COc1ccc(Cc2nccc3cc(OC)c(OC)cc23)cc1OC", "note": "[PAPAVERINE]", "values": [
      {"measurement": "Change", "setting": "[1]", "value": -18, "unit": "%"},
      {"measurement": "Change", "setting": "[5]", "value": -19, "unit": "%"},
      {"measurement": "Change", "setting": "[3]", "value": -5, "unit": "%"},
      {"measurement": "Change", "setting": "[4]", "value": -16, "unit": "%"}
    ]},
    {"molecule": "C[N+](C)(C)CCCCCC[N+](C)(C)C.[Cl-].[Cl-]", "note": "[HEXAMETHONIUM CHLORIDE]", "values": [
      {"measurement": "Change", "setting": "[1]", "value": -42, "unit": "%"},
      {"measurement": "Change", "setting": "[5]", "value": -69, "unit": "%"},
      {"measurement": "Change", "setting": "[3]", "value": -13, "unit": "%"},
      {"measurement": "Change", "setting": "[4]", "value": -43, "unit": "%"}
    ]},
    {"molecule": "NCCCCN=C(N)N", "note": "[AGMATINE]", "values": [
      {"measurement": "Change", "setting": "[6]", "value": 12, "unit": "%"},
      {"measurement": "Change", "setting": "[1]", "value": -8, "unit": "%"},
      {"measurement": "Change", "setting": "[2]", "value": 16, "unit": "%"},
      {"measurement": "Change", "setting": "[3]", "value": 0, "unit": "%"},
      {"measurement": "Change", "setting": "[7]", "value": 14, "unit": "%"},
      {"measurement": "Change", "setting": "[4]", "value": -10, "unit": "%"}
    ]},
    {"molecule": "NCCc1c[nH]cn1", "note": "[HISTAMINE]", "values": [
      {"measurement": "Change", "setting": "[1]", "value": -25, "unit": "%"},
      {"measurement": "Change", "setting": "[5]", "value": -16, "unit": "%"},
      {"measurement": "Change", "setting": "[3]", "value": -3, "unit": "%"},
      {"measurement": "Change", "setting": "[4]", "value": -26, "unit": "%"}
    ]},
    {"molecule": "COc1ccc(/C=C/C(=O)NCCCC/N=C(\\N)NCC=C(C)C)cc1OC", "values": [
      {"measurement": "Change", "setting": "[6]", "value": 21, "unit": "%"},
      {"measurement": "Change", "setting": "[1]", "value": -26, "unit": "%"},
      {"measurement": "Change", "setting": "[2]", "value": 57, "unit": "%"},
      {"measurement": "Change", "setting": "[3]", "value": 5, "unit": "%"},
      {"measurement": "Change", "setting": "[7]", "value": 41, "unit": "%"},
      {"measurement": "Change", "setting": "[4]", "value": -29, "unit": "%"}
    ]}
  ]
}
